Data taken from the kinase profiling compilation of Christmann-Franck et al. (2016).

Assays:
Experiment in all cases: KINOMEscan competition binding
Conditions in all cases: compound 1.0 µM
[1] = molecular target: PKN1 (human) (UniProt Q16512)
[2] = system: RET (human), P07949 [M918T]
[3] = molecular target: EPHB4 (human) (UniProt P54760)
[4] = molecular target: LIMK1 (human) (UniProt P53667)
[5] = molecular target: PRKCQ (human) (UniProt Q04759)
[6] = molecular target: BRAF (human) (UniProt P15056)
[7] = system: EGFR (human), P00533 [747-751 del / S ins]
Sequence of EGFR (human), P00533 [747-751 del / S ins] (P00533 whole entry, looked up, stated change not applied): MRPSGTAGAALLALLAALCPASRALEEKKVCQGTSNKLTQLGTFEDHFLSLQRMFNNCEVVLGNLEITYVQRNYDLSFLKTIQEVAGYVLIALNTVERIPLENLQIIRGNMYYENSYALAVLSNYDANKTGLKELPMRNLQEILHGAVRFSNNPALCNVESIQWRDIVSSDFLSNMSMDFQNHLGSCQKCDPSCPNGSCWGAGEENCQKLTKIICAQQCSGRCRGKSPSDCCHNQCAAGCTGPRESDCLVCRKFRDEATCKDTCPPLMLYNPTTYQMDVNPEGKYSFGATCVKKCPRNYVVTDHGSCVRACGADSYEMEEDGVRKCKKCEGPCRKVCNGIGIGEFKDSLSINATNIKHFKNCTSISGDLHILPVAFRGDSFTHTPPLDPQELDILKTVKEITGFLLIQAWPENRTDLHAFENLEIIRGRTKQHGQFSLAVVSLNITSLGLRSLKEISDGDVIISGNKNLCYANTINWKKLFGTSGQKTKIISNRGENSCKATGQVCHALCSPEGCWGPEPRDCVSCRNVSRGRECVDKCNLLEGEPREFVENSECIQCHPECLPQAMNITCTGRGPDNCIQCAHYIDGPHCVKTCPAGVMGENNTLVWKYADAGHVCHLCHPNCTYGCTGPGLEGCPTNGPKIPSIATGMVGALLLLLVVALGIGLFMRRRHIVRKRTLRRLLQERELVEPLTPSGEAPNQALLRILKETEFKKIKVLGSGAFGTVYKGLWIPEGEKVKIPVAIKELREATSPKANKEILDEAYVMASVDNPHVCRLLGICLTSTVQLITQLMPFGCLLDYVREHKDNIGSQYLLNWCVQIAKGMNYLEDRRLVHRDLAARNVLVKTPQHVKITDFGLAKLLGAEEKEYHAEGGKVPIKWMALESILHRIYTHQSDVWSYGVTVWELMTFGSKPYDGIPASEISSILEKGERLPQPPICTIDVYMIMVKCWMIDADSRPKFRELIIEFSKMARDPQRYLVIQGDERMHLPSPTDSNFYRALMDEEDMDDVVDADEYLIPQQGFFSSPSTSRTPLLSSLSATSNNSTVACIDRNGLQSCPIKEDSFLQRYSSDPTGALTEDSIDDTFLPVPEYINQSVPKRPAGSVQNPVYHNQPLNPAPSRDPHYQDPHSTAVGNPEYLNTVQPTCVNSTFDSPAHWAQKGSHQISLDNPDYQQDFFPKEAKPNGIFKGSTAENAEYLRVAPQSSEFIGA

[8] = molecular target: ACVR2A (human) (UniProt P27037)
[9] = molecular target: HCK (human) (UniProt P08631)
[10] = molecular target: CAMKK1 (human) (UniProt Q8N5S9)
Sequence of CAMKK1 (human) (Q8N5S9 whole entry, looked up): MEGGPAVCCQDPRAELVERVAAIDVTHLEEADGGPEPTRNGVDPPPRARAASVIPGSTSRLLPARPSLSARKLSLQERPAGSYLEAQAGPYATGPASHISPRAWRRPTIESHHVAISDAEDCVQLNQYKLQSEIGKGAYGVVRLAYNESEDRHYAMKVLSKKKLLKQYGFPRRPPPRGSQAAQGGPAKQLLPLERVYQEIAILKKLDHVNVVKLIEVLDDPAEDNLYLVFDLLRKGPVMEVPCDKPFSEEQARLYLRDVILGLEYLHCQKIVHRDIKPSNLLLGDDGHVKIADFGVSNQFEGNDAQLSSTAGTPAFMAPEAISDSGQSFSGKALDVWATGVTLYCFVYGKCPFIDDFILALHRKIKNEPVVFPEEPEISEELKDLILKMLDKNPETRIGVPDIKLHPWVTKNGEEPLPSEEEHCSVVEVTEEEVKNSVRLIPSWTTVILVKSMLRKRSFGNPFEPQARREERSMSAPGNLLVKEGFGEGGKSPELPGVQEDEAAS

[11] = molecular target: LIMK2 (human) (UniProt P53671)
[12] = molecular target: MAP4K2 (human) (UniProt Q12851)
[13] = system: EGFR (human), P00533 [P753S; 747-752 del]
Sequence of EGFR (human), P00533 [P753S; 747-752 del] (P00533 whole entry, looked up, stated change not applied): as the sequence (P00533 whole entry, looked up, stated change not applied) above

[14] = molecular target: MELK (human) (UniProt Q14680)
[15] = molecular target: TSSK1B (human) (UniProt Q9BXA7)
[16] = molecular target: CDK15 (human) (UniProt Q96Q40)
[17] = molecular target: CDK3 (human) (UniProt Q00526)
Sequence of CDK3 (human) (Q00526 whole entry, looked up): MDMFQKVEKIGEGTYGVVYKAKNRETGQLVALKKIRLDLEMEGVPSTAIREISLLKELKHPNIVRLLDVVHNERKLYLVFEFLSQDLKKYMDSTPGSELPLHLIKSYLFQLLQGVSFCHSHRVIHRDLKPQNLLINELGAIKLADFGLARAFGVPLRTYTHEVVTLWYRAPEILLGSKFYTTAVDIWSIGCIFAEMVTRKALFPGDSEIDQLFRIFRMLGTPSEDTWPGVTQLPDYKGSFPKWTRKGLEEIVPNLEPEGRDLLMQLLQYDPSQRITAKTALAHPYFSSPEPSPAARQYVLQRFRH

[18] = molecular target: MAP2K3 (human) (UniProt P46734)
[19] = molecular target: TGFBR2 (human) (UniProt P37173)
[20] = molecular target: DYRK1B (human) (UniProt Q9Y463)
[21] = molecular target: STK38L (human) (UniProt Q9Y2H1)
[22] = system: ABL1 (human), P00519 [F317I]
[23] = molecular target: RPS6KA3 KD1 (human) (UniProt P51812)
[24] = molecular target: ULK1 (human) (UniProt O75385)
[25] = molecular target: STK3 (human) (UniProt Q13188)
[26] = molecular target: TYK2 JH1 catalytic (human) (UniProt P29597)
[27] = molecular target: EPHA1 (human) (UniProt P21709)
[28] = molecular target: LATS2 (human) (UniProt Q9NRM7)
[29] = molecular target: NEK9 (human) (UniProt Q8TD19)
[30] = system: EGFR (human), P00533 [A750P; 747-749 del]
Sequence of EGFR (human), P00533 [A750P; 747-749 del] (P00533 whole entry, looked up, stated change not applied): as the sequence (P00533 whole entry, looked up, stated change not applied) above

[31] = molecular target: JAK2 JH1 catalytic (human) (UniProt O60674)
[32] = molecular target: MAP2K1 (human) (UniProt Q02750)
Sequence of MAP2K1 (human) (Q02750 whole entry, looked up): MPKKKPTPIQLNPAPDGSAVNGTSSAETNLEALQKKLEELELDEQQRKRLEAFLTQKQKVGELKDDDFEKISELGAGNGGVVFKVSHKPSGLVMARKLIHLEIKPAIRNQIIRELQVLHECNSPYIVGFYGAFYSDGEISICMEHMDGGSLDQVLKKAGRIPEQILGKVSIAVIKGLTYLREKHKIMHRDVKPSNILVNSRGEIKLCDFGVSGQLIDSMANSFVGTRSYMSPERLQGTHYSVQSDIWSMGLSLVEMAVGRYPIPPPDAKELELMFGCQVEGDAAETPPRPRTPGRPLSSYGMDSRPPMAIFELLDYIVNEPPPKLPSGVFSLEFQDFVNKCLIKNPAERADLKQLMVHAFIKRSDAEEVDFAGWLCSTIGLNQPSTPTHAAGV

[33] = molecular target: DCLK3 (human) (UniProt Q9C098)
[34] = system: BRAF (human), P15056 [V600E]
[35] = molecular target: MAP3K9 (human) (UniProt P80192)
[36] = molecular target: STK17B (human) (UniProt O94768)
[37] = molecular target: ACVRL1 (human) (UniProt P37023)
[38] = molecular target: TTK (human) (UniProt P33981)
[39] = molecular target: CSNK1G2 (human) (UniProt P78368)
[40] = molecular target: MARK1 (human) (UniProt Q9P0L2)

`Nc1cc(C(F)(F)F)c(-c2cc(N3CCOCC3)nc(N3CCOCC3)n2)cn1` gave an inhibition of binding [1] of 0%, an inhibition of binding [2] of 13% and an inhibition of binding [3] of 4%. The inhibition of binding [4] was 0%, the inhibition of binding [5] was 0% and the inhibition of binding [6] was 18%. The inhibition of binding [7] was 4%, the inhibition of binding [8] was 5% and the inhibition of binding [9] was 0%. For the same compound, the inhibition of binding [10] was 0%, the inhibition of binding [11] was 0% and the inhibition of binding [12] was 17%. For the same compound, the inhibition of binding [13] was 1%, the inhibition of binding [14] was 0% and the inhibition of binding [15] was 5%. The inhibition of binding [16] was 0%, the inhibition of binding [17] was 0% and the inhibition of binding [18] was 0%. For the same compound, the inhibition of binding [19] was 24%, the inhibition of binding [20] was 0% and the inhibition of binding [21] was 3%. The inhibition of binding [22] was 41%, the inhibition of binding [23] was 0% and the inhibition of binding [24] was 0%. For the same compound, the inhibition of binding [25] was 0%, the inhibition of binding [26] was 0% and the inhibition of binding [27] was 2%. It also gave an inhibition of binding [28] of 19%, an inhibition of binding [29] of 0% and an inhibition of binding [30] of 0%. It also gave an inhibition of binding [31] of 12%, an inhibition of binding [32] of 0% and an inhibition of binding [33] of 51%. For the same compound, the inhibition of binding [34] was 17%, the inhibition of binding [35] was 18% and the inhibition of binding [36] was 0%. It also gave an inhibition of binding [37] of 38%, an inhibition of binding [38] of 7% and an inhibition of binding [39] of 0%. For the same compound, the inhibition of binding [40] was 0%.
